# Test system: C57BL/6J SPF male mice
# Assay: Oral glucose tolerance test, blood sugar levels in mice
# Assay type: in vivo
# Settings: mean ± standard error; for Blood sugar level, 0 minutes (pretest value): fasted mice, pretest before administration, in mg/dL (unit assumed); for Blood sugar level, 30 minutes after glucose administration / Blood sugar level, 60 minutes after glucose administration / Blood sugar level, 120 minutes after glucose administration: oral 10 mL/kg (beans 400 mg/mL, sitagliptin 0.1 mg/mL) 30 minutes before oral glucose
# Description: The enzyme-treated azuki bean, tora bean and otebo bean prepared in Example 2 and an enzyme-treated defatted soybean prepared using the same method as Example 2 were evaluated for their actual blood sugar lowering effects in the body by using an oral glucose tolerance test. C57BL/6J SPF male mice (Clea Japan, Inc.) were used at age 10 weeks for the study animals. Twenty mice were divided into four groups of 5 mice each. In a single experiment, evaluation was carried out on four groups consisting of a control group (administered distilled water), a positive control group (administered sitagliptin) and two sample groups. Two experiments were carried out and a total of four samples were evaluated.
# Blood samples were collected from the caudal veins of the mice that had been fasting since the previous evening, and blood sugar levels were measured using a simple blood glucose measuring device (GLUTEST ACE®, Sanwa Kagaku Kenkyusho Co., Ltd.) to determine pretest values (0 minutes). 100 mg tablets of sitagliptin (MERCK) were ground with a mortar and suspended in water to a concentration of 0.1 mg/mL as sitagliptin for use as a positive control. Each of the enzyme-treated beans prepared in Example 2 (or in accordance with the method thereof) was dissolved with distilled water to a concentration of 400 mg/mL for use as an administration sample. Distilled water (control group), the sitagliptin suspension (positive control group) or the enzyme-treated bean aqueous solution (sample group) was administered orally at 10 mL/kg of body weight. A 40% aqueous glucose solution was administered orally at 5 mL/kg of body weight 30 minutes after administering the distilled water, sitagliptin suspension, or sample. Blood samples were collected from the caudal veins of the mice at, 30, 60 and 120 minutes after the oral administration of glucose, followed by measurement of these blood sugar levels in the same manner as that used for measurement of pretest values.
smiles,measurement,setting,value
"N[C@@H](CC(=O)N1CCn2c(nnc2C(F)(F)F)C1)Cc1cc(F)c(F)cc1F [Sitagliptin, sitagliptin]","Blood sugar level, 0 minutes (pretest value)",Experiment 1,82.4 ± 7.0
same,"Blood sugar level, 30 minutes after glucose administration",Experiment 1,270.6 ± 24.2
same,"Blood sugar level, 60 minutes after glucose administration",Experiment 1,185.4 ± 16.2
same,"Blood sugar level, 120 minutes after glucose administration",Experiment 1,110.2 ± 12.3
same,"Blood sugar level, 0 minutes (pretest value)",Experiment 2,72.0 ± 4.7
same,"Blood sugar level, 30 minutes after glucose administration",Experiment 2,215.4 ± 8.5
same,"Blood sugar level, 60 minutes after glucose administration",Experiment 2,145.0 ± 8.9
same,"Blood sugar level, 120 minutes after glucose administration",Experiment 2,93.6 ± 8.7
